The values below come from article PMC6326523, “A high-throughput screen to identify novel small molecule inhibitors of the Werner Syndrome Helicase-Nuclease (WRN)” (PLoS ONE, 2019).

This assay has as its system HeLa 1.2.11 cells. In words: HeLa cell proliferation assay (WST-1). The class given is cell-based, human. Conditions: 50 μM, 3-day time course. The method, then:
WRN inhibitors were diluted in DMSO to a concentration 100-fold higher than their final concentrations. U2-OS cells in culture were counted, spun down and resuspended to 35,000 cells/mL in DMEM with 10% FBS and Pen/Strep antibiotic. For each cell condition, 15 μL of DMSO or inhibitor was added to 1.5 ml of U2-OS cells in DMEM or DMEM alone. One hundred μL of each cell condition was plated in triplicate on each of four 96-well plates representing days 0–3. Ten μL of WST-1 cell proliferation reagent (Roche) was added to the day 0 plate and readings were taken 2 hr later using a plate reader set to 450 nm. WST-1 cell proliferation reagent was added to plates on days 1–3 and readings were taken after 2 hr incubation. Percent cell proliferation was normalized to cells in the presence of DMSO with the background OD450 of DMEM with each drug subtracted out. […]
Fig 9 Effects of WRN helicase inhibitors on cancer cell proliferation. (A) Cell proliferation of HeLa 1.2.11 cells treated with 50 μM NCGC00029283-03, NCGC00063279-03, NCGC00357377-01 and NSC 617145 (positive control) or vehicle (DMSO) on Day 0 and Day 3 as measured using the WST-1 cell proliferation reagent. […]
In general terms: Formazan colour is commonly taken as a measure of viable cells.

For the compound `Cc1ccc(-c2csc(NS(=O)(=O)c3cccc(F)c3)n2)o1` [MLS002251300-02], the “Effect on HeLa 1.2.11 cell proliferation” value is given as “did not reduce cell proliferation”.
